Experimental data reported in ChEMBL document CHEMBL4190294, “Design, synthesis and antiproliferative activity of decarbonyl luotonin analogues” (Eur J Med Chem, 2017).
One block for each compound: values may come before it. Active and inactive are the calls of the source. The rule behind the calls is not given here.

What was measured:
[1] = molecular target: T1, DNA topoisomerase 1 (Homo sapiens) (UniProt P11387); assay: Inhibition of human topoisomerase-1 expressed in baculovirus infected insect cells at 80 uM using supercoiled pGEM-5Zf(+) plasmid DNA as substrate after 30 mins by agarose gel electrophoresis method
T1 sequence (whole entry): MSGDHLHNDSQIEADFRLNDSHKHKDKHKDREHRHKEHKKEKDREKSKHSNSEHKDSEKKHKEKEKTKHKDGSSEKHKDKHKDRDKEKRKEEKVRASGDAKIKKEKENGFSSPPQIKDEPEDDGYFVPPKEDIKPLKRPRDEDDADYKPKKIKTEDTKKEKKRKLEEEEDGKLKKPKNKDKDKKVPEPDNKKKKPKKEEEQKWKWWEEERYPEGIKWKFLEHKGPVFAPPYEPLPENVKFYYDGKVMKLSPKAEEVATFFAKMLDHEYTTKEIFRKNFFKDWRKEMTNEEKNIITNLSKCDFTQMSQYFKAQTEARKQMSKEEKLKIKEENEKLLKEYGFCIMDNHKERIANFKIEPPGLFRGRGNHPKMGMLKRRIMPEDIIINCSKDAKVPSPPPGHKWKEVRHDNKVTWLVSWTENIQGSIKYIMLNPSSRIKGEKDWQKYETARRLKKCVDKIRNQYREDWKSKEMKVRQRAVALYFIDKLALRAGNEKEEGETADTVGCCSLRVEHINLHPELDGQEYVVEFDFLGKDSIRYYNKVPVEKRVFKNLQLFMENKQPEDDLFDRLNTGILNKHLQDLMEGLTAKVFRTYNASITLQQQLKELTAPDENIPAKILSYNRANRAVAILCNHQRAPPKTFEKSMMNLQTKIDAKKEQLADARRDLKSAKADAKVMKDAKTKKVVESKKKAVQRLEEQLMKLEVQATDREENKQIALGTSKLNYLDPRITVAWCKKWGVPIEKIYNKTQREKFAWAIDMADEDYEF

KB [2] = assay: Cytotoxicity against human KB cells assessed as reduction in cell viability after 72 hrs by MTT assay; type: functional, cell-based
MDA-MB-231 = assay: Cytotoxicity against human MDA-MB-231 cells assessed as reduction in cell viability after 72 hrs by MTT assay; type: functional, cell-based; settings: MDA-MB-231, 72 h
LNCaP = assay: Cytotoxicity against human LNCAP cells assessed as reduction in cell viability after 72 hrs by MTT assay; type: functional, cell-based
HT-1080 = assay: Cytotoxicity against human HT1080 cells assessed as reduction in cell viability after 72 hrs by MTT assay; type: functional, cell-based; settings: HT-1080, 72 h
KB [3] = assay: Cytotoxicity against human KB cells assessed as reduction in cell viability at 12.5 uM after 72 hrs by MTT assay; type: functional, cell-based

inhibition [1]: Active
SMILES: COc1cccc2cc3c(nc12)-c1nc2ccccc2n1C3
IC50 (KB [2]): 16.9 µM
IC50 (MDA-MB-231): > 100 µM
IC50 (LNCaP): 20 µM
IC50 (HT-1080): > 100 µM

inhibition [1]: Active
SMILES: Cc1cccc2cc3c(nc12)-c1nc2ccccc2n1C3
IC50 (KB [2]): 20 µM
IC50 (MDA-MB-231): > 100 µM
IC50 (LNCaP): 23.8 µM
IC50 (HT-1080): > 100 µM

inhibition [1]: Active
SMILES: Brc1cccc2cc3c(nc12)-c1nc2ccccc2n1C3
IC50 (KB [2]): 15.3 µM
IC50 (MDA-MB-231): 11.3 µM
IC50 (LNCaP): 8.4 µM
IC50 (HT-1080): 66 µM

The remaining lines, values behind:

SMILES: c1ccc2nc3c(cc2c1)Cn1c-3nc2ccccc21
inhibition [1]: Active
IC50 (KB [2]): 10.9 µM
IC50 (MDA-MB-231): 12 µM
IC50 (LNCaP): 11.3 µM
IC50 (HT-1080): 52.9 µM

SMILES: Cc1ccc2cc3c(nc2c1)-c1nc2ccccc2n1C3
inhibition [1]: Active
IC50 (KB [2]): 75 µM
IC50 (MDA-MB-231): > 100 µM
IC50 (LNCaP): 39 µM
IC50 (HT-1080): 8.7 µM

SMILES: COc1ccc2cc3c(nc2c1)-c1nc2ccccc2n1C3
inhibition [1]: Active
IC50 (KB [2]): 40.6 µM
IC50 (MDA-MB-231): > 100 µM
IC50 (LNCaP): 25 µM
IC50 (HT-1080): 95 µM

SMILES: COc1ccc2nc3c(cc2c1)Cn1c-3nc2ccccc21
inhibition [1]: Active
IC50 (KB [2]): 20 µM
IC50 (MDA-MB-231): > 100 µM
IC50 (LNCaP): 24.7 µM
IC50 (HT-1080): 52.3 µM

SMILES: O=c1c2ccccc2nc2n1Cc1cc3ccccc3nc1-2
Activity (KB [3]): Active

SMILES: Cc1ccc2nc3c(cc2c1)Cn1c-3nc2ccccc21
inhibition [1]: Active
IC50 (KB [2]): 11.3 µM
IC50 (MDA-MB-231): > 100 µM
IC50 (LNCaP): 62.5 µM
IC50 (HT-1080): 9.3 µM

SMILES: Clc1cccc2cc3c(nc12)-c1nc2ccccc2n1C3
IC50 (KB [2]): 11.5 µM
IC50 (MDA-MB-231): 69 µM
IC50 (LNCaP): 24 µM
IC50 (HT-1080): 28.7 µM
Activity (KB [3]): Active
